Here are results for three compounds from patent publication US8350062B2, “Synthesis and anticancer activity of new actin-targeting small-molecule agents” (priority 2009, dated 2013).

Series [1] has as its target T1, G-actin (Oryctolagus cuniculus, UniProt P68135).
T1 construct: Actin was purified from rabbit muscle acetone powder; tissue Pel-Freez Biologicals (acetone powder); host or cells: rabbit muscle acetone powder
In words: Isothermal titration calorimetry, binding to monomeric actin. Also on record: species or system rabbit. How it is done:
Isothermal Titration Calorimetry. A solution of rabbit skeletal muscle actin (5-10 μM) was titrated with bistramide A or its analog (50-100 μM) at 25° C. in buffer containing 2 mM Tris HCl, pH 8.0, 0.2 mM CaCl2, 0.01% NaN3, 0.2 mM ATP, 0.2 mM 2-mercaptoethanol. Dissociation constants were calculated from the binding curve using Origin analytical software (OriginLab) with the binding model involving a single set of identical sites
A general note: In ITC the heat of successive injections is recorded.

For series [2], the system named is A549 cells. In words: Cell viability assay (CellTiter-Glo), growth inhibition of A549 cells. The format is cell-based, human. To be noted: Homo sapiens, A549, 48 h, 48 h incubation. On the procedure: Cell Viability Assays. All assays were performed using at least three replicate wells for each concentration tested. Original 10-25 mM DMSO stock solution of bistramide A or its analogs was diluted to 100 μM for analogs 4-8, 10 μM for analog 3, 5 μM for analog 2 and 1 μM for bistramide A (1) with F-12K cell culture media supplemented with 10% fetal bovine serum, 100 I.U./ml penicillin, 100 μg/ml streptomycin and 2 mM L-glutamine. Two-fold serial dilutions were performed and used for cell-based assays. A549 cells were grown in 96-well white plates at the density of 1,000 cells per well in 100 μl F-12K cell culture media. Cells were allowed to attach over 24 h and treated with 30 μl of the drug solution and incubated further for 48 h. After incubation, cell viability was determined using luminescence-based commercial kit (CellTiter-Glo, Promega) and luminescence measured using a Wallac Victor 3 plate reader. To measure cell growth inhibition, viability assays were performed twice: at initial time point T0 and after 48 h incubation (T48). Change in the number of viable cells was measured, and GI50 was calculated from sigmoidal plots. For analog 10, growth of A549 and PC3 cells was monitored over 96 h following addition of the drug. 100 μM was the highest concentration tested. At no point did the total DMSO conc. exceed 1%.

The subject of series [3] is F-actin in A549 cells. In words: Fluorescent visualization of F-actin in A549 cells (Alexa Fluor 488 phalloidin). The format is cell-based, human. The conditions noted are these: 2 h incubation. How it is done:
The presence of the enone increased the severing efficiency of the analogs three-fold. […] We determined whether it was the depletion of actin filaments by analogs 2-5 which was responsible for the growth inhibition of A549 cells. Each of the compounds was incubated with A549 cells for 2 h at a concentration that exceeded the GI50 value by a factor of 5. The cells were then fixed, permeabilized and filamentous actin was visualized by fluorescence microscopy following Alexa Fluor 488 phalloidin staining. […] They induced depolymerization at 150 nM for bistramide A (1), 500 nM for analog 2 and 2 μM for analog 3. Analogs 4 and 5 induced depolymerization of actin only at concentrations as high as 100 μM. […] This observation was consistent with the enhanced cell-based activity of the compounds containing the C(1)-C(4) enone moiety.
Fluorescent Visualization Of F-Actin In Cells. A549 cells grown on coverslips were incubated with analogs 4-8 (100 μM) analog 3 (2 μM) or analog 2 (500 nM) or bistramide A (150 nM) in F-12K cell culture medium for 2 h, fixed with 3% formaldehyde in PBS at 25° C. for 5 min and permeabilized with 0.1% Triton X-100 at 25° C. for 10 min. After washing with PBS, coverslips were stained with Alexa Fluor 488 Phalloidin and visualized by fluorescence microscopy.

The target of series [4] is T1, G-actin. The series can be described thus: Interaction with actin by MALDI-TOF (covalent modification). The format is biochemical, rabbit. To be noted: 1:1 actin-drug complex, 30 min. How it is done:
Interaction Of Bistramide-Based Compounds With Actin By MALDI-TOF. A 1:1 actin-drug complex was incubated for 30 min in 2 mM Tris-HCl, pH 8.0, 0.2 mM CaCl2, 0.01% NaN3, 0.2 mM ATP, 1 mM 2-mercaptoethanol, diluted with deionized water to 26 μM and mixed with an equal volume of a solution of 10 mg/ml sinapinic acid in 50% CH3CN— 0.1% TFA. MALDI spectra were obtained on a Voyager-DE PRO biospectrometry workstation.

Series [5] deals with non-small cell broncho-pulmonary carcinoma xenografts. The conditions noted are these: mouse, in vivo; cited from earlier work.
The conditions of series [6]: mouse, in vivo; cited from earlier work.
The target in series [7] is filamentous actin (Oryctolagus cuniculus, UniProt P68135). In words: TIRF microscopy of actin filament severing and depolymerization. Format: biochemical, rabbit. Also on record: Actin was purified from rabbit muscle acetone powder; tissue Pel-Freez Biologicals (acetone powder); host or cells: rabbit muscle acetone powder. The source says: To gain further insight into the mode of action of bistramide A, we next investigated the interaction of the natural product and its analogs with filamentous actin. […] Similar observations have been reported for several other actin-binding natural products. However, this effect could provide only limited mechanistic information and may primarily reflect the binding of a small molecule to the filaments in close proximity to the dye and quenching of pyrene fluorescence, which could be independent of the rates of actin depolymerization. Some proteins like myosin and Actin Depolymerizing Factor (ADF)/Cofilin are known to do so. Total internal reflection fluorescence (TIRF) microscopy has recently emerged as a powerful tool to investigate actin filament dynamics and its regulation by several actin-binding proteins, as well as latrunculin A, which is […] depolymerizing filamentous actin in vitro. Thus, we decided to employ TIRF microscopy to observe in real time the effects of bistramide-based compounds on actin polymerization in vitro. We believe this is the first instance where TIRF microscopy has been utilized to study the severing of actin filaments by a small molecule. We polymerized G-actin containing 25% of tetramethylrhodamine-functionalized and 10% of biotin-functionalized actin. The resulting actin filaments were immobilized onto the streptavidin-coated glass slides (in a flow cell). Analogs 1-8 were flown through the flow cell and imaged by time-lapse TIRF microscopy.
Total Internal Reflection Fluorescence Microscopy. Actin filament severing was studied using a custom-built total internal reflection fluorescence microscope. Images were collected with a 100×, 1.45 NA objective (Olympus) and an EMCCD camera (iXon, Andor Technologies). Glass flow cell (6 μl volume) was washed with 0.25 mg/ml neutravidin in F-buffer (50 mM KCl, 1 mM MgCl2, 1 mM EGTA, 10 mM imidiazole, 2 mM ATP, 0.2 mM 2-mercaptoethanol, 2 min) and blocked with 1 mg/ml BSA in F-buffer (2 min). Ten microliters of 200 nM Mg^2+-F-actin (10% biotinylated, 25% labeled with maleimide-6-tetramethylrhodamine) in TIRF-buffer (50 mM KCl, 1 mM MgCl2, 1 mM EGTA, 10 mM imidiazole, 2 mM ATP, 4.5 mg/ml glucose, 0.5% 2-mercaptoethanol, 4.3 mg/ml glucose oxidase, 0.7 mg/ml catalase) was added to the flowcell and incubated for 2 min. The chamber was rinsed with TIRF-buffer and imaged. Compounds were freshly diluted from their DMSO stock solutions in TIRF-buffer and were added to the chamber immediately after the start of each experiment. Images were collected at 0.2-s exposures every 3 s for 200 frames. For kinetics studies, movies of suitable length were obtained for each of the analog concentrations. Analysis was performed using ImageJ.

“Also recorded” adds a separate entry of the source.

In general, Kd refers to the constant that tells how readily two partners part at equilibrium. Read a high Kd as weaker binding. In general, GI50 refers to the concentration that inhibits growth by half. A higher GI50 goes with lower sensitivity of the cells.

For the compound `C/C=C/C(=O)C[C@@H]1CCC(C)C(CC(=O)NC[C@H](O)[C@H](C)C(=O)NCCC[C@H]2O[C@@]3(CCC[C@@H](CC[C@H](C)/C=C(\C)C(C)O)O3)CCC2C)O1` (some centres unmarked) [Bistramide A (1), bistramide A, reference compound], in series [1], the Kd came out at 7 nM. For the same compound, the GI50 was found to be 20 nM in series [2] and 20.4 nM in series [2] (values of the text). Also, the “concentration inducing actin depolymerization in A549 cells” value in series [3] is given as 150 nM. Also, the “covalent modification of G-actin” value in series [4] was “covalently modified G-actin”. In addition, the “inhibition of tumor growth in xenograft model” value (from here on “inhibition of tumor growth”) in series [5] is given as “ineffective at reducing tumor growth”. For the same compound, the general toxicity result in series [6] was “high general toxicity”. The “effect on filamentous actin” value in series [7] (750 nM) is on record as “rapid filament depletion”. Moreover, the “No. of breaks per 100 μm” value in series [7] (compound at 0.75 μM) is reported as 40.4 per 100 μm. Also, the Pointed-end depolymerization rate in series [7] (compound at 0.75 μM, standard deviations 0.1-0.3 subunits/s) amounted to 0.49 subunits/s. Moreover, the Barbed-end depolymerization rate in series [7] (compound at 0.75 μM, standard deviations 0.4-0.6 subunits/s) is on record as 1.88 subunits/s.
Take `C/C=C/[C@H](O)CC1CCC(C)C(CC(=O)NCC(O)C(C)C(=O)NCCCC2OC3(CCCC(CCC(C)/C=C(\C)C(C)O)O3)CCC2C)O1` (some centres unmarked) [bistramide D]: the “inhibition of tumor growth” value in series [5] is on record as “shown to inhibit proliferation; also recorded: effective at inhibiting tumor growth in vivo”.
For the compound `C/C=C/C(O)C/C=C/CC(C)C(O)CC(=O)NCC(O)C(C)C(=O)NCCCC1OC2(CCCC(CCC(C)/C=C(\C)C(C)O)O2)CCC1C` (centres unmarked) [bistramide K], in series [5], the “inhibition of tumor growth” value is given as “shown to inhibit proliferation; also recorded: effective at inhibiting tumor growth in vivo”. Moreover, in series [6], the “dose with no observed toxicity” value is reported as “up to 200 mg/kg”.
